From patent US7265099B1, “Use of chemical chelators as reversal agents for drug-induced neuromuscular block” (Organon N.V., priority 1999, dated 2007)

Columns and labels:
[1] = system: steady-state neuromuscular block induced by rocuronium bromide (Roc); test: Reversal of neuromuscular blockade in vivo, anaesthetized guinea pig, rocuronium
Protocol: (§1) Male Dunkin-Hartley guinea pigs (bodyweight: 600–900 g) were anaesthetized by i.p. administration of 10 mg/kg pentobarbitone and 1000 mg/kg urethane. After tracheotomy, the animals were artificially ventilated using a Harvard small animal ventilator. A catheter was placed into the carotid artery for continuous monitoring of arterial blood pressure and the taking of blood samples for blood gas analysis. Heart rate was derived from the blood pressure signal. The sciatic nerve was stimulated (rectangular pulses of 0.5 ms duration at 10 s (0.1 Hz) intervals at a supramaximal voltage, using a Grass S88 Stimulator) and the force of M. gastrocnemius contractions was measured using a Grass FT03 force-displacement transducer. Contractions, blood pressure and heart rate were recorded on a multichannel Grass 7D recorder. Catheters were placed in both jugular veins. One catheter was used for the continuous infusion of a neuromuscular blocking agent. The infusion rate of the neuromuscular blocking agent was increased until a steady-state block of 85–90% was obtained. The other catheter was used for administration of increasing doses of the reversal agent. During continuous infusion of the neuromuscular blocking agent, single doses of increasing concentration of reversal agent were given. At the end of the experiment, the measured force of muscle contractions was plotted against the concentration of reversal agent, and using regression analysis techniques, the 50% reversal concentration was calculated.
Reversal of neuromuscular block in vivo, induced by rocuronium bromide, was carried out as described in Example 5.

[2] = system: steady-state neuromuscular block induced by vecuronium bromide (Vec); test: Reversal of neuromuscular blockade in vivo, anaesthetized guinea pig, vecuronium; conditions: Vec infusion, 85–90% block, anaesthetized guinea pigs, i.v. reversal agent; mean
Protocol: as §1

[3] = system: neuromuscular block induced by rocuronium in isolated mouse hemidiaphragm; test: Reversal of neuromuscular block in vitro: isolated mouse hemidiaphragm preparation; conditions: for Mouse hemidiaphragm: maximum reversal (%) / concentration of chemical chelator at maximum reversal: 3.1 μM rocuronium; for concentration of chemical chelator at maximum reversal / maximum reversal / EC50: mouse hemidiaphragm; for maximum reversal / EC50: rocuronium bromide 3.6 μM in the bath, 95% block; for EC50: read-out: 50% reversal concentration; for Reversal of the neuromuscular blocking action of rocuronium (in words): rocuronium-induced block
Protocol: Hemidiaphragms, with phrenic nerves attached, were removed from euthanized male mice (Institute of Cancer Research; bodyweight: 20–60 g). The preparations were mounted on a tissue holder and placed in a tissue bath filled with a modified Krebs-Henseleit solution (composition: 118 mM NaCl, 30 mM NaHCO3, 5 mM KCl, 1 mM KH2PO4, 1 mM MgSO4, 30 mM glucose and 2.5 mM CaCl2) at 37° C. and bubbled with 95% oxygen and 5% carbondioxide. One end of the preparation was connected with a siliconized silk suture to a Grass FT03 force-displacement transducer. An initial force of 10 mN was applied. The phrenic nerve was placed on a bipolar platinum electrode and was stimulated with rectangular pulses of 0.2 ms duration at 20 s (0.05 Hz) intervals at a supramaximal voltage, using a Grass S88 Stimulator. Contractions were recorded on a four channel Grass 79D recorder.
Increasing amounts of reversal agent were then administered into the bath at intervals of 10 min. The % maximum reversal was established. At the end of the experiment, the measured muscle contractions force was plotted against the concentration of reversal agent, and using regression analysis techniques, the 50% reversal concentration was calculated.
After induction of neuromuscular block by rocuronium, the % maximum reversal produced by the addition of a number of γ-cyclodextrin derivatives (compounds 11–16), a cyclic octasaccharide comprising 4 rhamnosyl-mannopyranosyl units (compound 24), or a number of paracyclophane derivatives (compounds 17–21 and 23) are presented in Table II.
Reversal of neuromuscular block in vitro was carried out using the mouse hemidiaphragm preparation as described in Example 6.

[4] = system: steady-state neuromuscular block induced by pancuronium bromide (Pan); test: Reversal of neuromuscular blockade in vivo, anaesthetized guinea pig, pancuronium; conditions: Pan infusion, 85–90% block, anaesthetized guinea pigs, i.v. reversal agent; mean
Protocol: as §1

[5] = system: steady-state neuromuscular block induced by suxamethonium chloride (Sux; succinylcholine); test: Reversal of neuromuscular blockade in vivo, anaesthetized guinea pig, suxamethonium; conditions: Sux infusion, 85–90% block, anaesthetized guinea pigs, i.v. reversal agent; mean
Protocol: as §1

[6] = system: steady-state neuromuscular block induced by rapacuronium bromide (Rap; Org 9487); test: Reversal of neuromuscular blockade in vivo, anaesthetized guinea pig, rapacuronium; conditions: Rap infusion, 85–90% block, anaesthetized guinea pigs, i.v. reversal agent; mean
Protocol: as §1

[7] = Roc infusion, 85–90% block, anaesthetized guinea pigs, i.v. reversal agent, mean
[8] = rocuronium bromide, anaesthetised guinea pig, as in Example 5

Compound	Dose (ED50) producing 50% reversal of steady-state neuromuscular block [1, 7]	Dose (ED50) producing 50% reversal of steady-state neuromuscular block [2]	Mouse hemidiaphragm: maximum reversal (%) [3] [%]	concentration of chemical chelator at maximum reversal [3] [µM]	further results
per 2,6-dimethyl-β-CD (DS = 12.6) [Compound 4]	70 (2) μmol.kg^−1	1313 (4) μmol.kg^−1			
2-hydroxypropyl-β-CD [Compound 10]	33 (3) μmol.kg^−1	1598 (4) μmol.kg^−1			
O=C(O)CCCC(=O)N1CCCCCN(C(=O)CCCC(=O)O)c2ccc(cc2)Cc2ccc(cc2)N(C(=O)CCCC(=O)O)CCCCCN(C(=O)CCCC(=O)O)c2ccc(cc2)Cc2ccc1cc2 [Compound 20, N, N′, N″, N′″-Tetrakis(4-carboxybutyryl)-1,7, 21, 27-tetraaza[7.1.7.1] paracyclophane]			8.7	72	
O=C(O)CC(=O)N1CCCCCN(C(=O)CC(=O)O)c2ccc(cc2)Cc2ccc(cc2)N(C(=O)CC(=O)O)CCCCCN(C(=O)CC(=O)O)c2ccc(cc2)Cc2ccc1cc2 [Compound 19, N, N′, N″, N′″-Tetrakis(carboxyacetyl)-1,7, 21, 27-tetraaza[7.1.7.1] paracyclophane]			2.4	108	
O=C(O)c1cc2ccc1OCCCCCOc1ccc(cc1C(=O)O)Cc1ccc(c(C(=O)O)c1)OCCCCCOc1ccc(cc1C(=O)O)C2 [Compound 17, 1,7,21,27-tetraoxa-9,17,29,37-tetracarboxy[7.1.7.1]paracyclophane]			11	360	
carboxymethyl-β-CD (DS 3–3.5) [Compound 7]	139 (3) μmol.kg^−1				
β-cyclodextrin-phosphate sodium salt (DS = 8) [Compound 6]	120 (2) μmol.kg^−1				
OC[C@H]1O[C@@H]2O[C@H]3[C@H](O)[C@@H](O)[C@@H](O[C@H]4[C@H](O)[C@@H](O)[C@@H](O[C@H]5[C@H](O)[C@@H](O)[C@@H](O[C@H]6[C@H](O)[C@@H](O)[C@@H](O[C@H]7[C@H](O)[C@@H](O)[C@@H](O[C@H]1[C@H](O)[C@H]2O)O[C@@H]7CO)O[C@@H]6CO)O[C@@H]5CO)O[C@@H]4CO)O[C@@H]3CO [Compound 1, α-cyclodextrin]	1575 (2) μmol.kg^−1	2610 (1) μmol.kg^−1			
O=C(O)CCC(=O)N1CCCCCN(C(=O)CCC(=O)O)c2ccc(cc2)Cc2ccc(cc2)N(C(=O)CCC(=O)O)CCCCCN(C(=O)CCC(=O)O)c2ccc(cc2)Cc2ccc1cc2 [Compound 21, N, N′,N″, N′″-Tetrakis(3-carboxypropionyl)-1,7, 21, 27-tetraaza[7.1.7.1]para-cyclophane]			0	360	
O=S(=O)(O)c1cc2c(O)c(c1)Cc1cc(S(=O)(=O)O)cc(c1O)Cc1cc(S(=O)(=O)O)cc(c1O)Cc1cc(S(=O)(=O)O)cc(c1O)Cc1cc(S(=O)(=O)O)cc(c1O)Cc1cc(S(=O)(=O)O)cc(c1O)Cc1cc(S(=O)(=O)O)cc(c1O)Cc1cc(S(=O)(=O)O)cc(c1O)C2 [4-sulfonic calix[8]arene]					Dose (ED50) producing 50% reversal of steady-state neuromuscular block [1, 8]: 34 µmol/kg; maximum reversal [3]: 124%; EC50 [3]: 36 µM
carboxymethyl-β-CD (DS = 3.5) [Compound 2]	134 (2) μmol.kg^−1	800 (1) μmol.kg^−1			
cyclo[(1–4)-α-L-rhamnopyranosyl-(1–4)-α-D-mannopyranosyl]-tetraoside [Compound 24]			86	288	Reversal of the neuromuscular blocking action of rocuronium (in words) [3]: efficiently blocked; Reversal of the neuromuscular blocking action of rocuronium (in words) ([3]; listed as cyclo-[(1–4)-α-L-rhamno-pyranosyl-(1–4)-α-D-mannopyranosyl]tetraoside): effective
β-cyclodextrin-phosphate sodium salt (DS = 3) [Compound 5]	280 (3) μmol.kg^−1				
O=S(=O)(O)c1cc2c(O)c(c1)Cc1cc(S(=O)(=O)O)cc(c1O)Cc1cc(S(=O)(=O)O)cc(c1O)Cc1cc(S(=O)(=O)O)cc(c1O)Cc1cc(S(=O)(=O)O)cc(c1O)Cc1cc(S(=O)(=O)O)cc(c1O)C2 [4-sulfonic calix[6]arene, 4-Sulfonic calix[6]arene]					Dose (ED50) producing 50% reversal of steady-state neuromuscular block [1, 8]: 5.1 µmol/kg; maximum reversal [3]: 120%; EC50 [3]: 34 µM
γ-cyclodextrin-phospate sodium salt (DS = 7) [Compound 12]	52 (2) μmol.kg^−1		17	360	
O=C(O)CCC(=O)N1CC2CCC(CC2)CN(C(=O)CCC(=O)O)c2ccc(cc2)Cc2ccc(cc2)N(C(=O)CCC(=O)O)CC2CCC(CC2)CN(C(=O)CCC(=O)O)c2ccc(cc2)Cc2ccc1cc2 [Compound 23, N, N′, N″, N′″-Tetra (3-carboxypropionyl)-3,4,5,6,7,8,26,27,28,29,30,31-dodecahydro-1,10,24,33-tetraaza[2.2.1.2.2.1]paracyclophane]			90	58	Reversal of the neuromuscular blocking action of rocuronium (in words) [3]: efficiently blocked
2-hydroxy-3-trimethylammonio propyl-β-CD (DS = 3.5) [Compound 3]	518 (2) μmol.kg^−1	1400 (1) μmol.kg^−1			
O=C(O)c1cc2ccc1OCc1ccc(cc1)COc1ccc(cc1C(=O)O)Cc1ccc(c(C(=O)O)c1)OCc1ccc(cc1)COc1ccc(cc1C(=O)O)C2 [Compound 18, 1,10,24,33-tetraoxa-12,20,35,43-tetracarboxy-[2.2.1.2.2.1]paracyclophane]			61	288	Reversal of the neuromuscular blocking action of rocuronium (in words) [3]: efficiently blocked
carboxyethyl-β-CD (DS = 3) [Compound 8]	42 (3) μmol.kg^−1	103 (2) μmol.kg^−1			Dose (ED50) producing 50% reversal of steady-state neuromuscular block [4]: 479 (2) μmol.kg^−1; Dose (ED50) producing 50% reversal of steady-state neuromuscular block [5]: 408 (2) μmol.kg^−1; Dose (ED50) producing 50% reversal of steady-state neuromuscular block [6]: 412 (2) μmol.kg^−1
